{"source": "patent US7445939B2", "about": "“Stable liquid membranes for liquid phase microextraction” (Varian, Inc., priority 2004, dated 2008)", "key": {"[1]": {"assay": "Weights of fibers with liquid membranes as a function of time and storing condition", "type": "physicochemical"}, "[2]": {"settings": "supported liquid membranes of WO 02/088672; cited from earlier work"}, "[3]": {"assay": "Extraction ability and storage stability of supported liquid membranes on hollow fibers (in words)", "type": "physicochemical", "settings": "polypropylene fibers, after 30 days of storage at room temperature", "method": "The liquid membrane was formed by dipping the hollow fiber into the organic solvent for 5 to 30 sec to allow the solvent to penetrate into the pores of the fiber. Then acceptor solution was introduced into the lumen of the fiber using a syringe. The acceptor solution was 10 mM HCl, having a pH of 2. Extraction ability was tested by immersing the hollow fibers with their supported liquid membranes into a sample vial containing 4 mL of a solution containing 5 basic drugs, at a pH of 12, with stirring, and allowing the analytes to equilibrate across the liquid membranes to the acceptor solution within (25 μl 10 mM HCl). After allowing the sample analytes sufficient time to reach equilibration with the acceptor solution, about 15 to 60 minutes, the acceptor solution was withdrawn from the hollow fibers, and the concentration of analytes was determined using capillary electrophoresis.\nExperiments were performed using polypropylene and polysulfone hollow fibers, testing the effectiveness and stability of liquid membranes comprising fatty oils in the extraction of analytes from samples after storage of the fibers for 30 days prior to use. Supported liquid membranes were established on the hollow fibers using the procedures described in Example 1 above, but substituting the following oils for the organic solvents tested in Example 1: tributyrin, soya oil, or olive oil. […]"}}}
{"smiles": "CCCCCCCCCCCCOC(C)=O", "note": "[DDA, dodecyl acetate]", "values": [{"measurement": "Weight (mg) of fibers", "setting": "[1]; DDA table, closed container, Day 0", "result": 42.40, "unit": "mg"}, {"measurement": "Weight (mg) of fibers", "setting": "[1]; DDA table, closed container, Day 3", "result": 42.14, "unit": "mg"}, {"measurement": "Weight (mg) of fibers", "setting": "[1]; DDA table, closed container, Day 10", "result": 42.12, "unit": "mg"}, {"measurement": "Weight (mg) of fibers", "setting": "[1]; DDA table, open to the air, Day 0", "result": 45.94, "unit": "mg"}, {"measurement": "Weight (mg) of fibers", "setting": "[1]; DDA table, open to the air, Day 2", "result": 43.92, "unit": "mg"}, {"measurement": "Weight (mg) of fibers", "setting": "[1]; DDA table, open to the air, Day 5", "result": 41.70, "unit": "mg"}]}
{"smiles": "CCCCCCCCCCCCCC(=O)OC(C)=O", "note": "[MA, myristoyl acetate]", "values": [{"measurement": "Weight (mg) of fibers", "setting": "[1]; MA table, closed container, Day 0", "result": 38.76, "unit": "mg"}, {"measurement": "Weight (mg) of fibers", "setting": "[1]; MA table, closed container, Day 4", "result": 38.72, "unit": "mg"}, {"measurement": "Weight (mg) of fibers", "setting": "[1]; MA table, open to the air, Day 0", "result": 41.36, "unit": "mg"}, {"measurement": "Weight (mg) of fibers", "setting": "[1]; MA table, open to the air, Day 4", "result": 40.90, "unit": "mg"}]}
{"smiles": "CCCCCCCCOc1ccccc1[N+](=O)[O-]", "note": "[NPOE, nitropheyloctyl ether]", "values": [{"measurement": "Membrane lifetime", "setting": "[2]", "result": "10 to 20", "unit": "days"}]}
{"smiles": "CCCC(=O)OCC(COC(=O)CCC)OC(=O)CCC", "note": "[tributyrin]", "values": [{"measurement": "Extraction performance", "setting": "[3]", "result": "extracted analytes"}]}
